Data taken from patent US4912092A, “Methods for increasing extracellular adenosine and for stabilizing mast cells” (The Regents of the University of California, priority 1987, dated 1990).

Assays:
inosine = experiment: Venous inosine levels during coronary artery occlusion in dogs; type: in vivo, dog; conditions: over the 60-minute assay period (FIG. 5)
Experimental: Thirteen mongrel dogs were anesthetized with phenobarbital. […] C.V. Dis. 20; 55 (1977). […] Two of the surviving saline-treated animals fibrillated. […] The range was 4.4 to 100 μM.
That the increase in the levels of adenosine is due, at least in part, to a reduction in the amount of ATP that is converted to inosine was shown by analysis of venous blood from dogs in Example III for inosine levels.

[1] = system: pentylene tetrazol-induced seizures; experiment: Pentylene tetrazol-induced seizures; type: in vivo, rat
[2] = system: HPRT- neuroblastoma cells; experiment: Adenosine excretion by ionophore-stimulated HPRT- neuroblastoma cells; type: cell-based; conditions: for Concentration of Adenosine: HPRT-, AICA riboside 50 μM
Experimental: The history and properties of the cell line have been described by Hershfield et al. in Science, Vol. 197, p. 1284, 1977.
Catabolism of cellular ATP stores was stimulated by adding either 2-deoxyglucose or a calcium ionophore. At various times, the amount of adenosine released by the cells into the supernatant, or the amount of nucleotides remaining in the cells, was determined by mixing 30 μl of chilled 4.4N perchloric acid with 300 μl of supernatants, or by adding 300 μl of chilled 0.4N perchloric acid to the cells collected as pellets and centrifuging the mixtures at 500×G for 10 minutes at 4° C. […] 1245, 1975. Following centrifugation at 1500×G for three minutes at 4° C., the aqueous phase is removed and frozen at -20° C. until assayed for adenosine, inosine, or for nucleotides. Adenosine was evaluated isocratically on a C-18 microBondapak reverse phase column equilibrated with 4 millimolar potassium phosphate, (pH 3.4):acetonitrile 60% in water (95:5 v/v) buffer. Adenosine elutes at 8-10 minutes, and its identity was confirmed by its sensitivity to adenosine deaminase and by spiking with adenosine standards. The extracted samples from the cell pellet were analyzed for nucleotides by high pressure liquid chromatography on a Whatman Partisil-10 (SAX) column equilibrated with 10 millimolar potassium phosphate, pH 3.78, and eluted with a linear gradient to a 0.25 molar potassium phosphate, 0.5 molar KCl, pH 3.45. […] Peaks were quantitated by comparison with high pressure liquid chromatography analysis of suitable standards.
To induce ATP catabolism, the growth medium was replaced by medium containing micromolar amounts of the calcium ionophore A23187 and 1.0 μM deoxycoformycin.

[3] = system: Mouse bone marrow-derived mast cells; type: cell-based; conditions: 100 micromolar, A23187 at 1 μg/ml; 28.8% in its absence
Experimental: By preventing mast cell degranulation, it is possible to prevent or control a patient's allergic response. Bone marrow obtained from Balb/C mice femurs was cultured in a 1:1 mixture of Razin media and conditioned media, produced by co-culturing splenocytes from C57B1/6J and C3H mice in the presence of Concanavalin A as described by Razin et al. in the Proc. Natl. Acad. Sci. USA 28: 2559-2561, 1981. After weekly passaging and at least 15 days in tissue culture, the resulting cells were 90% pure mast cells and 95% viable as assessed by Trypan blue exclusion. Cells exposed to ribavirin in culture were washed three times prior to use in experiments. Parallel cultures of cells grown in media alone were used as controls for pharmacologically manipulated mast cells. Cell growth was assessed by counting cells at particular time points and comparing actual numbers of ribavirin-treated cells to numbers of cells grown in media alone.
β-hexosaminidase was chosen as a representative granule-associated, preformed mast cell mediator because it is easily quantitated, and its release nearly identically parallels that of histamine. Mouse bone marrow-derived mast cells were centrifuged at 200×g for 5 minutes, washed three times in Tyrode's buffer lacking divalent cations, sensitized for 30 minutes at 37° C. with anti-DNP ([…]) IgE (1 μg/10^6 cells) and challenged with either DNP-BSA antigen (175 ng/3×10^5 cells) or A23187 (10 μg/ml/3×10^5 cells) in 400 μl of complete Tyrode's buffer for 10 minutes at 37° C. Reaction mixtures were centrifuged at 200×g for 10 minutes, and supernatant and pellet β-hexosaminidase concentrations were assayed by the hydrolysis of p-nitrophenyl-β-D-glucosamide as described in Schwartz et al. in J. Immunol. […] Spontaneous β-hexosaminidase release was determined in unchallenged cells. The net % of β-hexosaminidase released is defined as follows: [formula] where [β-hex] is β-hexosaminidase and super. is supernatant. When exogenous adenosine was present in reaction mixtures, it was added simultaneously with the secretagogue.

NC(=O)c1ncn([C@@H]2O[C@H](CO)[C@@H](O)[C@H]2O)c1N [AICA riboside, 5-amino-4-imidazolecarboxamide riboside]
inosine levels in venous blood versus saline (inosine): more than twofold decrease
latency to seizure ([1]; 2000 mg/kg (total dose) intraperitoneal (FIG. 12)): dramatic prolongation
reduction of animals having seizures ([1]; 2000 mg/kg (total dose) intraperitoneal, 60 mg/kg pentylene tetrazol): 40%
Concentration of Adenosine ([2]; ionophore 0 μg/ml): < 0.01 µM
Concentration of Adenosine ([2]; ionophore 10 μg/ml, control 0.124): 0.513 µM
correction of the twofold lower adenosine secretion of HPRT-deficient cells ([2]; pretreatment): can be corrected by pretreatment
hexosaminidase released [3]: 17.6%
